This passage reports EC50 and IC50 results from US20240409556A1, “BENZOPIPERAZINE AND RELATED ANALOGS FOR INHIBITING YAP/TAZ-TEAD” (Springworks Therapeutics, Inc., priority 2023, published 2024).

The test system of experiment [1] is NCI-H226 mesothelioma cell line. In words: Mesothelioma cell line proliferation assay, NCI-H226 (ATPlite). It counts as cell-based. The note with it: NCI-H226 cells, 6 days with compound, cell viability by ATPlite. The protocol: Example 57: Activity of Compounds of the Disclosure in Mesothelioma Cell Line Proliferation Assays
Mesothelioma cell lines, NCI-H226 and NCI-H2052 (both sourced from the ATCC cell culture collection) were plated in 96-well plates (Corning® 96 Well White Polystyrene Microplate clear flat bottom, white polystyrene (TC-Treated)), at 1500 cells/well in full medium (RPMI 1640 ATCC modification with L-glutamine, HEPES, Phenol Red, Sodium Pyruvate, High glucose, Low sodium bicarbonate and 10% fetal bovine serum). Cells were incubated overnight at 37° C. in an incubator with 5% CO2. Then compounds, dissolved in DMSO, were added in dose-response. Cells were incubated with compound dilutions for another 6 days at 37° C. in an incubator with 5% CO2. Cell viability was quantitated using the ATPlite kit (Perkin-Elmer) and the luminescence was read-out using an Envision instrument (Perkin-Elmer). The amount of relative light units produced using the ATPlite kit was used to calculate percent of inhibition.
The activities of some example compounds are depicted in Table 4. The activity ranges A, B and C refer to EC50 values in the mesothelioma cell line proliferation assay as described as follows: “A”: EC50<1 μM; “B”: 1 μM≤EC50≤10 μM and “C”: EC50>10 μM; NT: not tested.

In experiment [2] the test system is YAP/TAZ-TEAD transcription. The experiment in a line: Reporter gene assay for measuring the inhibition of YAP/TAZ-TEAD transcription (TEAD-responsive element luciferase reporter in Hek293T cells). The settings on record: 24 hours incubation. The experiment is classed as cell-based. In outline: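 HEK293T cells transiently transfected with a TEAD-responsive luciferase reporter were exposed to compounds for 24 h at 37° C/5% CO2, then luminescence was read. Percent inhibition normalised to vehicle (0%) and positive-control inhibitor (100%); IC50 derived.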

As for `CNS(=O)(=O)N1CCN2c3ccccc3N(c3ccc(C(F)(F)F)cc3)CC2C1` (single isomer, unassigned) [32-En2, (R)- or (S)-N-methyl-6-(4-(trifluoromethyl)phenyl)-1,2,4,4a,5,6-hexahydro-3H-pyrazino[1,2-a]quinoxaline-3-sulfonamide], the concentration for a half-maximal effect (EC50) in experiment [1] is less than 1 µM. In experiment [2], the IC50 was less than 1 µM.

For `CC(=O)NCC1CN(c2ccc(C(F)(F)F)cc2)c2ccccc2N1` (single isomer, unassigned) [34-En2, (R)- or (S)-N-((4-(4-(trifluoromethyl)phenyl)-1,2,3,4-tetrahydroquinoxalin-2-yl)methyl)acetamide], the EC50 in experiment [1] is less than 1 µM. Besides, the IC50 in experiment [2] (Homo sapiens, HEK-293T, 24 h) is less than 1 µM.

Consider `CC(=O)NCC1CN(c2ccc(C(F)(F)F)cc2)c2ccccc2O1` (single isomer, unassigned) [36-En1, (R)- or (S)-N-((4-(4-(trifluoromethyl)phenyl)-3,4-dihydro-2H-benzo[b][1,4]oxazin-2-yl)methyl)acetamide], for which, in experiment [1], the EC50 was less than 1 µM. This compound yielded an IC50 in experiment [2] of less than 1 µM.

`C=CC(=O)N1CC2CN(c3ccc(C(F)(F)F)cc3)c3ccccc3N2CC1C(=O)O` (stereo not drawn) [compound 88, (cis)- or (trans)-3-acryloyl-6-(4-(trifluoromethyl)phenyl)-2,3,4,4a,5,6-hexahydro-1H-pyrazino[1,2-a]quinoxaline-2-carboxylic acid] came in with an IC50 in experiment [2] (Homo sapiens, HEK-293T, 24 h) of less than 1 µM.

`C=CC(=O)N1CC2CN(c3ccc(C(F)(F)F)cc3)c3ccccc3N2CC1C(=O)O` (stereo not drawn) [compound 89, (cis)- or (trans)-3-acryloyl-6-(4-(trifluoromethyl)phenyl)-2,3,4,4a,5,6-hexahydro-1H-pyrazino[1,2-a]quinoxaline-2-carboxylic acid] gave an IC50 in experiment [2] of less than 1 µM.

As for `CC(=O)N1CC2CN(c3ccc(C(F)(F)F)cc3)c3ccccc3N2CC1C(=O)O` (stereo not drawn) [compound 90, (cis)- or (trans)-3-acetyl-6-(4-(trifluoromethyl)phenyl)-2,3,4,4a,5,6-hexahydro-1H-pyrazino[1,2-a]quinoxaline-2-carboxylic acid], in experiment [2], the IC50 is more than 10 µM.

In experiment [2], `CC(=O)N1CC2CN(c3ccc(C(F)(F)F)cc3)c3ccccc3N2CC1C(=O)O` (stereo not drawn) [compound 91, (cis)- or (trans)-3-acetyl-6-(4-(trifluoromethyl)phenyl)-2,3,4,4a,5,6-hexahydro-1H-pyrazino[1,2-a]quinoxaline-2-carboxylic acid] gave an IC50 of less than 1 µM.

`CNC(=O)O[C@@H]1C[C@@H]2CN(c3ccc(C(F)(F)F)cc3)c3cccnc3N2C1` [compound 92, (6aR,8R)-5-(4-(trifluoromethyl)phenyl)-5,6,6a,7,8,9-hexahydropyrido[3,2-e]pyrrolo[1,2-a]pyrazin-8-yl methylcarbamate] displayed an IC50 in experiment [2] (Homo sapiens, HEK-293T, 24 h) of less than 1 µM.

Regarding `CC(=O)N[C@@H]1C[C@@H]2CN(c3ccc(C(F)(F)F)cc3)c3cc(C)cnc3N2C1` [compound 93, N-((6aR,8R)-3-methyl-5-(4-(trifluoromethyl)phenyl)-5,6,6a,7,8,9-hexahydropyrido[3,2-e]pyrrolo[1,2-a]pyrazin-8-yl)acetamide], the IC50 in experiment [2] (Homo sapiens, HEK-293T, 24 h) is less than 1 µM.

For `O=C(O)CC(=O)N[C@@H]1C[C@@H]2CN(c3ccc(C(F)(F)F)cc3)c3cccnc3N2C1` [compound 94, 3-oxo-3-(((6aR,8R)-5-(4-(trifluoromethyl)phenyl)-5,6,6a,7,8,9-hexahydropyrido[3,2-e]pyrrolo[1,2-a]pyrazin-8-yl)amino)propanoic acid], in experiment [2] (Homo sapiens, HEK-293T, 24 h), the IC50 is 1 to 10 µM.

In turn, `O=C(CO)N[C@@H]1C[C@@H]2CN(c3ccc(C(F)(F)F)cc3)c3cccnc3N2C1` [compound 95, 2-hydroxy-N-((6aR,8R)-5-(4-(trifluoromethyl)phenyl)-5,6,6a,7,8,9-hexahydropyrido[3,2-e]pyrrolo[1,2-a]pyrazin-8-yl)acetamide] had an IC50 in experiment [2] (Homo sapiens, HEK-293T, 24 h) of less than 1 µM.

Compound `NCC(=O)N[C@@H]1C[C@@H]2CN(c3ccc(C(F)(F)F)cc3)c3cccnc3N2C1` [compound 97, 2-amino-N-((6aR,8R)-5-(4-(trifluoromethyl)phenyl)-5,6,6a,7,8,9-hexahydropyrido[3,2-e]pyrrolo[1,2-a]pyrazin-8-yl)acetamide] gave a half-maximal inhibitory concentration (IC50) in experiment [2] (Homo sapiens, HEK-293T, 24 h) of less than 1 µM.

The compound `CC(=O)N[C@@H]1C[C@@H]2CN(c3ccc(C(F)(F)F)cc3)c3cc(Cl)cnc3N2C1` [compound 98, N-((6aR,8R)-3-chloro-5-(4-(trifluoromethyl)phenyl)-5,6,6a,7,8,9-hexahydropyrido[3,2-e]pyrrolo[1,2-a]pyrazin-8-yl)acetamide] came in with an IC50 in experiment [2] (Homo sapiens, HEK-293T, 24 h) of less than 1 µM.

For `N#C[C@@H]1C[C@@H]2CN(c3ccc(C(F)(F)F)cc3)c3cccnc3N2C1` [compound 103, (6aR,8R)-5-(4-(trifluoromethyl)phenyl)-5,6,6a,7,8,9-hexahydropyrido[3,2-e]pyrrolo[1,2-a]pyrazine-8-carbonitrile], in experiment [2] (Homo sapiens, HEK-293T, 24 h), the IC50 is more than 10 µM.

In the case of `O=C(O)C1CCN2c3ccc(Cl)cc3N(c3ccc(C(F)(F)F)cc3)CC2C1` (stereo not drawn) [compound 104, (cis)- or (trans)-3-chloro-5-(4-(trifluoromethyl)phenyl)-6,6a,7,8,9,10-hexahydro-5H-pyrido[1,2-a]quinoxaline-8-carboxylic acid], the concentration for half-maximal inhibition (IC50) in experiment [2] (Homo sapiens, HEK-293T, 24 h) was in the range of 1 to 10 µM.

In the case of `O=C(O)C1CCN2c3c(Cl)cccc3N(c3ccc(C(F)(F)F)cc3)CC2C1` (stereo not drawn) [compound 105, (cis)- or (trans)-1-chloro-5-(4-(trifluoromethyl)phenyl)-6,6a,7,8,9,10-hexahydro-5H-pyrido[1,2-a]quinoxaline-8-carboxylic acid], the IC50 in experiment [2] (Homo sapiens, HEK-293T, 24 h) is less than 1 µM.

As to `O=C(O)C1CCN2c3cc(Cl)ccc3N(c3ccc(C(F)(F)F)cc3)CC2C1` (stereo not drawn) [compound 106, (cis)- or (trans)-2-chloro-5-(4-(trifluoromethyl)phenyl)-6,6a,7,8,9,10-hexahydro-5H-pyrido[1,2-a]quinoxaline-8-carboxylic acid], the IC50 in experiment [2] (Homo sapiens, HEK-293T, 24 h) was less than 1 µM.

`CC(=O)NCC1CN(c2ccc(C(F)(F)F)cc2)c2ccc(OC(F)F)nc2O1` (stereo not shown) [compound 108, N-((6-(difluoromethoxy)-1-(4-(trifluoromethyl)phenyl)-2,3-dihydro-1H-pyrido[2,3-b][1,4]oxazin-3-yl)methyl)acetamide] showed an IC50 in experiment [2] (Homo sapiens, HEK-293T, 24 h) of 1 to 10 µM.

In the case of `CC(C)(O)C(=O)N[C@@H]1C[C@@H]2CN(c3ccc(C(F)(F)F)cc3)c3cccnc3N2C1` [compound 110, 2-hydroxy-2-methyl-N-((6aR,8R)-5-(4-(trifluoromethyl)phenyl)-5,6,6a,7,8,9-hexahydropyrido[3,2-e]pyrrolo[1,2-a]pyrazin-8-yl)propanamide], the IC50 in experiment [2] (Homo sapiens, HEK-293T, 24 h) is less than 1 µM.

Compound `O=C(O)C1CCN(c2ccccc2Nc2ccc(C(F)(F)F)cc2)CC1` [compound 111, 1-(2-((4-(trifluoromethyl)phenyl)amino)phenyl)piperidine-4-carboxylic acid] showed an IC50 in experiment [2] (Homo sapiens, HEK-293T, 24 h) of less than 1 µM.

`CC(=O)NCC1CN(c2ccc(C(F)(F)F)cc2)c2ccc(C(F)F)nc2O1` (stereo not shown) [compound 112, N-((6-(difluoromethyl)-1-(4-(trifluoromethyl)phenyl)-2,3-dihydro-1H-pyrido[2,3-b][1,4]oxazin-3-yl)methyl)acetamide]: the IC50 in experiment [2] (Homo sapiens, HEK-293T, 24 h) is less than 1 µM.

Regarding `O=C(O)[C@H]1C[C@@H]2CN(c3ccc(C(F)(F)F)cc3)c3cccnc3N2C1` [compound 113, (6aR,8S)-5-(4-(trifluoromethyl)phenyl)-5,6,6a,7,8,9-hexahydropyrido[3,2-e]pyrrolo[1,2-a]pyrazine-8-carboxylic acid], in experiment [2] (Homo sapiens, HEK-293T, 24 h), the IC50 fell in the range of 1 to 10 µM.

On to `CC1(C(=O)O)CCN2c3ccccc3N(c3ccc(C(F)(F)F)cc3)CC2C1` (stereo not drawn) [compound 114, (cis)- or (trans)-8-methyl-5-(4-(trifluoromethyl)phenyl)-6,6a,7,8,9,10-hexahydro-5H-pyrido[1,2-a]quinoxaline-8-carboxylic acid], for which the IC50 in experiment [2] (Homo sapiens, HEK-293T, 24 h) was less than 1 µM.

On to `CN(c1ccc(C(F)(F)F)cc1)c1ccccc1N1CCC(C(=O)O)CC1` [compound 118, 1-(2-(methyl(4-(trifluoromethyl)phenyl)amino)phenyl)piperidine-4-carboxylic acid], for which the IC50 in experiment [2] (Homo sapiens, HEK-293T, 24 h) fell in the range of 1 to 10 µM.

In experiment [2] (Homo sapiens, HEK-293T, 24 h), `O=C(O)C1CCN(c2ccccc2Nc2ccc(C(F)(F)F)cc2)C(=O)C1` (stereo not shown) [compound 119, 2-oxo-1-(2-((4-(trifluoromethyl)phenyl)amino)phenyl)piperidine-4-carboxylic acid] gave an IC50 of more than 10 µM.

Compound `O=C(O)C1CCN(c2ccccc2Oc2ccc(C(F)(F)F)cc2)CC1` [compound 120, 1-(2-(4-(trifluoromethyl)phenoxy)phenyl)piperidine-4-carboxylic acid] yielded an IC50 in experiment [2] (Homo sapiens, HEK-293T, 24 h) of less than 1 µM.

Turning to `O=C(O)C1CCN(c2ncccc2Nc2ccc(C(F)(F)F)cc2)CC1` [compound 124, 1-(3-((4-(trifluoromethyl)phenyl)amino)pyridin-2-yl)piperidine-4-carboxylic acid], the half-maximal inhibitory concentration (IC50) in experiment [2] (Homo sapiens, HEK-293T, 24 h) was less than 1 µM.

Compound `Cc1ccc(Nc2ccc(C(F)(F)F)cc2)c(N2CCC(C(=O)O)CC2)n1` [compound 125, 1-(6-methyl-3-((4-(trifluoromethyl)phenyl)amino)pyridin-2-yl)piperidine-4-carboxylic acid] came in with a 50% inhibitory concentration (IC50) in experiment [2] (Homo sapiens, HEK-293T, 24 h) of less than 1 µM.
